Legend:
[1] = biological target: Serine/threonine-protein kinase 38 (Homo sapiens) (UniProt Q15208); test: Inhibition of wild-type human partial length NDR1 (N33 to E449 residues) expressed in mammalian expression system assessed as residual activity at 1 uM by Kinomescan method relative to control
[2] = biological target: Calcium/calmodulin-dependent protein kinase type 1D (Homo sapiens) (UniProt Q8IU85); test: Inhibition of wild-type human partial length CAMK1D (M1 to K299 residues) expressed in bacterial expression system assessed as residual activity at 1 uM by Kinomescan method relative to control
[3] = test system: Serine/threonine-protein kinase B-raf (Homo sapiens), P15056 [V600E]; test: Inhibition of human partial length BRAF V600E mutant (S429 to E741 residues) expressed in mammalian expression system assessed as residual activity at 1 uM by Kinomescan method relative to control
[4] = biological target: Serine/threonine-protein kinase D1 (Homo sapiens) (UniProt Q15139); test: Inhibition of wild-type human partial length PRKD1 (G551 to E870 residues) expressed in bacterial expression system assessed as residual activity at 1 uM by Kinomescan method relative to control
[5] = biological target: Mitogen-activated protein kinase kinase kinase 7 (Homo sapiens) (UniProt O43318); test: Inhibition of wild-type human partial length TAK1 (M1 to Q303 residues) expressed in mammalian expression system assessed as residual activity at 1 uM by Kinomescan method relative to control
[6] = biological target: Calcium/calmodulin-dependent protein kinase type II subunit gamma (Homo sapiens) (UniProt Q13555); test: Inhibition of wild-type human partial length CAMK2G (R9 to A303 residues) expressed in bacterial expression system assessed as residual activity at 1 uM by Kinomescan method relative to control
[7] = biological target: LIM domain kinase 2 (Homo sapiens) (UniProt P53671); test: Inhibition of wild-type human full length LIMK2 (M1 to P638 residues) expressed in bacterial expression system assessed as residual activity at 1 uM by Kinomescan method relative to control
[8] = biological target: Serine/threonine-protein kinase tousled-like 1 (Homo sapiens) (UniProt Q9UKI8); test: Inhibition of wild-type human partial length TLK1 (K447 to A754 residues) expressed in bacterial expression system assessed as residual activity at 1 uM by Kinomescan method relative to control
Serine/threonine-protein kinase tousled-like 1 (Homo sapiens), sequence (Q9UKI8 whole entry, the tested form may be a part): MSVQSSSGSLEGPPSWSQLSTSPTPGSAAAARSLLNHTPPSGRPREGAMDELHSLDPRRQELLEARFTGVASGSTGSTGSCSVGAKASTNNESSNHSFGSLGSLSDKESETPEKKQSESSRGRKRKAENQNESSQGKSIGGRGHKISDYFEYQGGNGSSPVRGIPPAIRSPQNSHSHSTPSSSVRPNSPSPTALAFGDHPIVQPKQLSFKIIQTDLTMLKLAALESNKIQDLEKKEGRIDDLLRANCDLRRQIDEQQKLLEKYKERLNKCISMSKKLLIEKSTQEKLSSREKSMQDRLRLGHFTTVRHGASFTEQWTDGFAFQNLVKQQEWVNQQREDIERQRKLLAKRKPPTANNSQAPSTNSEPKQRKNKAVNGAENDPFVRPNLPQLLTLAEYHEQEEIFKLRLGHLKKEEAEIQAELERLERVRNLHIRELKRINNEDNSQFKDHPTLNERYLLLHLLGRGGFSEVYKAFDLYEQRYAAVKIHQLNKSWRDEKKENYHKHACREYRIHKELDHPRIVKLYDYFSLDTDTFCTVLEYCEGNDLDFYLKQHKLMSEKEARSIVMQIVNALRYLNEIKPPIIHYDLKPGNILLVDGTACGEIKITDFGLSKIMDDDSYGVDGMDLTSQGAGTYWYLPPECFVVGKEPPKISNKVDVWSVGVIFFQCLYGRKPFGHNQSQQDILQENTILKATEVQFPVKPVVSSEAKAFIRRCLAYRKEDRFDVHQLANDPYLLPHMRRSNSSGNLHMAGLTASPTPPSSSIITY

[9] = biological target: Phosphatidylinositol 4-phosphate 5-kinase type-1 alpha (Homo sapiens) (UniProt Q99755); test: Inhibition of wild-type human full length PIP5K1A (M1 to H562 residues) expressed in bacterial expression system assessed as residual activity at 1 uM by Kinomescan method relative to control
[10] = biological target: Calcium/calmodulin-dependent protein kinase kinase 2 (Homo sapiens) (UniProt Q96RR4); test: Inhibition of wild-type human partial length CAMKK2 (D65 to V471 residues) expressed in bacterial expression system assessed as residual activity at 1 uM by Kinomescan method relative to control
[11] = biological target: Calcium/calmodulin-dependent protein kinase type II subunit delta (Homo sapiens) (UniProt Q13557); test: Inhibition of wild-type human partial length CAMK2D (M1 to E329 residues) expressed in bacterial expression system assessed as residual activity at 1 uM by Kinomescan method relative to control
Calcium/calmodulin-dependent protein kinase type II subunit delta (Homo sapiens), sequence (Q13557 whole entry, the tested form may be a part): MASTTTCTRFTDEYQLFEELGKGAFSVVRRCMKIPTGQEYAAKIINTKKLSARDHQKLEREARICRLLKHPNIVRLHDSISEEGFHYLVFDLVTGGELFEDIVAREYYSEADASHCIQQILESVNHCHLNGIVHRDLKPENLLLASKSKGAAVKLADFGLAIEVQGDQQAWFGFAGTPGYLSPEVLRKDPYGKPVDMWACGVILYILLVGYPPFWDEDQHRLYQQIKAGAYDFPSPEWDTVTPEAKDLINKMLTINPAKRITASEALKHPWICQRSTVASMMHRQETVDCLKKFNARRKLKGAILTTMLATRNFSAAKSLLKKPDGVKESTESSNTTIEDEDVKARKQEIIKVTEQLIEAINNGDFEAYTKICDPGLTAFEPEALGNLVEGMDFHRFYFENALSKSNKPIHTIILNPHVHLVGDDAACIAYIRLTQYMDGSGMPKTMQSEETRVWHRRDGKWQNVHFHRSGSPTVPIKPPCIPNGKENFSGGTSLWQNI

[12] = Growth inhibition of human M07e cells; format: functional; details: Homo sapiens, M-07e
[13] = biological target: Calcium/calmodulin-dependent protein kinase kinase 1 (Homo sapiens) (UniProt Q8N5S9); test: Inhibition of wild-type human partial length CAMKK1 (R65 to E414 residues) expressed in bacterial expression system assessed as residual activity at 1 uM by Kinomescan method relative to control
[14] = test system: Tyrosine-protein kinase ABL1 (Homo sapiens), P00519 [F317I]; test: Inhibition of human phosphorylated ABL1 F317I mutant (S229 to K512 residues) expressed in mammalian expression system assessed as residual activity at 1 uM by Kinomescan method relative to control
[15] = test system: Phosphatidylinositol 4,5-bisphosphate 3-kinase catalytic subunit alpha isoform (Homo sapiens), P42336 [H1047L]; test: Inhibition of human partial length PIK3CA H1047L mutant (R108 to N1068 residues) expressed in mammalian expression system assessed as residual activity at 1 uM by Kinomescan method relative to control
[16] = biological target: Phosphatidylinositol 4-phosphate 3-kinase C2 domain-containing subunit beta (Homo sapiens) (UniProt O00750); test: Inhibition of wild-type human partial length PIK3C2B (M1 to L1634 residues) expressed in mammalian expression system assessed as residual activity at 1 uM by Kinomescan method relative to control
[17] = biological target: Mast/stem cell growth factor receptor Kit (Homo sapiens) (UniProt P10721); test: Inhibition of wild-type human partial length autoinhibited KIT (Y545 to D952 residues) expressed in mammalian expression system assessed as residual activity at 1 uM by Kinomescan method relative to control
Mast/stem cell growth factor receptor Kit (Homo sapiens), sequence (P10721 whole entry, the tested form may be a part): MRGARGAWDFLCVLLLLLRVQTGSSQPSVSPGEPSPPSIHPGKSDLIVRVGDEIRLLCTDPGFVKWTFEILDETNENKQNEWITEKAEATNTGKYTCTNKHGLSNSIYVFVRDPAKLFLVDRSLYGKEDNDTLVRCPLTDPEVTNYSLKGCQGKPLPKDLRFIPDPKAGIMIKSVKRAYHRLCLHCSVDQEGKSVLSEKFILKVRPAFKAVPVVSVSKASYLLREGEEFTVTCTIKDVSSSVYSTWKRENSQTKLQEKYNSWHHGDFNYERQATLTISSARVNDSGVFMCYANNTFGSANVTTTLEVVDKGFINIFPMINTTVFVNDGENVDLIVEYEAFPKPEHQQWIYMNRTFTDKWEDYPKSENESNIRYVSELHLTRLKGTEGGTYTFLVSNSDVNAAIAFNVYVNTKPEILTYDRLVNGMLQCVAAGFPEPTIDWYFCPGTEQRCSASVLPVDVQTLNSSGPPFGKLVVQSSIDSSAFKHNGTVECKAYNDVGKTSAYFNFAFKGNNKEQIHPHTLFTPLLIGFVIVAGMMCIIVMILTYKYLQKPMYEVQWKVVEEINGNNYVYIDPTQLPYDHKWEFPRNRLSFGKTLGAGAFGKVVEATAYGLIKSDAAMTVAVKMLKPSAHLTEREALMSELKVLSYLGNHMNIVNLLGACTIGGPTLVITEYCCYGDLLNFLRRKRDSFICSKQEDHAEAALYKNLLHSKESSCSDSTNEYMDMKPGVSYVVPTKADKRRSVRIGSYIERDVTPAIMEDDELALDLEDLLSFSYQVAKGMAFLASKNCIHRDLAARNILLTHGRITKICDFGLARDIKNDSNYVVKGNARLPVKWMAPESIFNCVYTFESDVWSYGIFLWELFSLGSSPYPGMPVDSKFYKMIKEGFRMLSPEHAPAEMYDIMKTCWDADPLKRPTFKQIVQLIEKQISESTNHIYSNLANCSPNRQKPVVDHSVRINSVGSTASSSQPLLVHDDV

[18] = biological target: MAP kinase-interacting serine/threonine-protein kinase 2 (Homo sapiens) (UniProt Q9HBH9); test: Inhibition of wild-type human partial length MKNK2 (G63 to S388 residues) expressed in mammalian expression system assessed as residual activity at 1 uM by Kinomescan method relative to control
[19] = biological target: Muscle, skeletal receptor tyrosine-protein kinase (Homo sapiens) (UniProt O15146); test: Inhibition of wild-type human partial length MUSK (M553 to V869 residues) expressed in bacterial expression system assessed as residual activity at 1 uM by Kinomescan method relative to control
[20] = biological target: Tyrosine-protein kinase TXK (Homo sapiens) (UniProt P42681); test: Inhibition of wild-type human partial length TXK (L238 to W527 residues) expressed in bacterial expression system assessed as residual activity at 1 uM by Kinomescan method relative to control
Tyrosine-protein kinase TXK (Homo sapiens), sequence (P42681 whole entry, the tested form may be a part): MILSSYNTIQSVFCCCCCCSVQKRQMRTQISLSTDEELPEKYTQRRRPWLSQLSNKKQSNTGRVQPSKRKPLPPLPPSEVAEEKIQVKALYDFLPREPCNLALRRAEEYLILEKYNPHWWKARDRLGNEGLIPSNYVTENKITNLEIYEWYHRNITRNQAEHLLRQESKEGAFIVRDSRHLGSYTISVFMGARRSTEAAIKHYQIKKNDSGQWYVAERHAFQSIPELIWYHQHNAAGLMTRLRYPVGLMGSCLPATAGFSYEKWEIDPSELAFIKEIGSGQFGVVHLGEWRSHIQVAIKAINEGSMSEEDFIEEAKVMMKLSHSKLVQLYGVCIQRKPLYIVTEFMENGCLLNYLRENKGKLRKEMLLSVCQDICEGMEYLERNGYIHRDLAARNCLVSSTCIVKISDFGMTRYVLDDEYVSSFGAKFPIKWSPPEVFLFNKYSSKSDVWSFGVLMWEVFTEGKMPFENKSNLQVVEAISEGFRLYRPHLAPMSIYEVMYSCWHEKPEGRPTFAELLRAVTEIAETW

[21] = test system: Epidermal growth factor receptor (Homo sapiens), P00533 [UNDEFINED MUTATION]; test: Inhibition of human partial length EGFR L747-S752del/P753S mutant expressed in bacterial expression system assessed as residual activity at 1 uM by Kinomescan method relative to control
Epidermal growth factor receptor (Homo sapiens), P00533 [UNDEFINED MUTATION], sequence (P00533 whole entry, looked up, stated change not applied): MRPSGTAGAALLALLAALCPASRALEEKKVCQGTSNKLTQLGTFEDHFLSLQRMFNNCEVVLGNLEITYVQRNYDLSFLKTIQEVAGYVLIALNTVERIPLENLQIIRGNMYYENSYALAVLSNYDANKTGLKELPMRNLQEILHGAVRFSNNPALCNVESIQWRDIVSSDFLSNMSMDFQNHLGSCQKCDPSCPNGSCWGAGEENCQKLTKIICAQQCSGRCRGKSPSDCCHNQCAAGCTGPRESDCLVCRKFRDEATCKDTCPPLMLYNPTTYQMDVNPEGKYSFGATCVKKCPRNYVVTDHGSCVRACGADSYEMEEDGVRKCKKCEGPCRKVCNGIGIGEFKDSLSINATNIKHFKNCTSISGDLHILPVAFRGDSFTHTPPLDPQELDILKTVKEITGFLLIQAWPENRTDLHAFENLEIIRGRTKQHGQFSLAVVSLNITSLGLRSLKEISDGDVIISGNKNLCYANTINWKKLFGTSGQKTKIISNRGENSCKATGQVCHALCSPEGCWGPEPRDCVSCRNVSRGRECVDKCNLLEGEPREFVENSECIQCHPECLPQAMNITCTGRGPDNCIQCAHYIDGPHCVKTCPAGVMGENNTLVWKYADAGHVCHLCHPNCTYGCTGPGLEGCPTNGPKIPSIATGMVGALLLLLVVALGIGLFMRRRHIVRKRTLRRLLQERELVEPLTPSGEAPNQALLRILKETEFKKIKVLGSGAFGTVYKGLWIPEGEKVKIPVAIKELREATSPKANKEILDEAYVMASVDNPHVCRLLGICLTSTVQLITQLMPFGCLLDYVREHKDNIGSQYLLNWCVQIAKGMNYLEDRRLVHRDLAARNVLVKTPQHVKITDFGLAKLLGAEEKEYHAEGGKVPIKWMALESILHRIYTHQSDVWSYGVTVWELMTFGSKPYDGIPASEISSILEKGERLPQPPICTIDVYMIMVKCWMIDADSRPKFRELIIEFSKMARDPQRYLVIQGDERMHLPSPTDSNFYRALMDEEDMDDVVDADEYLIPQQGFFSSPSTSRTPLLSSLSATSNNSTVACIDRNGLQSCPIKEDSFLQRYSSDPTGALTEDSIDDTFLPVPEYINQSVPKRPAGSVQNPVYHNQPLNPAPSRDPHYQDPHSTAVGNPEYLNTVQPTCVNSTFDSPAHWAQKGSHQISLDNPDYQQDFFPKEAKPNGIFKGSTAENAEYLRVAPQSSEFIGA

[22] = AUC (0 to infinity) in Sprague-Dawley rat at 10 mg/kg, po by LC-MS/MS method; format: ADME, organism-based; set-up: dose 10 mg/kg, route oral, time infinity; details: in vivo
[23] = biological target: ALK tyrosine kinase receptor (Homo sapiens) (UniProt Q9UM73); test: Inhibition of wild-type human partial length ALK (I1088 to E1409 residues) expressed in mammalian expression system assessed as residual activity at 1 uM by Kinomescan method relative to control
[24] = biological target: Serine/threonine-protein kinase SBK1 (Homo sapiens) (UniProt Q52WX2); test: Inhibition of wild-type human partial length SBK1 (P23 to P348 residues) expressed in mammalian expression system assessed as residual activity at 1 uM by Kinomescan method relative to control
[25] = biological target: Glycogen synthase kinase-3 alpha (Homo sapiens) (UniProt P49840); test: Inhibition of wild-type human full length GSK3A (M1 to S483 residues) expressed in bacterial expression system assessed as residual activity at 1 uM by Kinomescan method relative to control
Glycogen synthase kinase-3 alpha (Homo sapiens), sequence (P49840 2-483 limits assumed): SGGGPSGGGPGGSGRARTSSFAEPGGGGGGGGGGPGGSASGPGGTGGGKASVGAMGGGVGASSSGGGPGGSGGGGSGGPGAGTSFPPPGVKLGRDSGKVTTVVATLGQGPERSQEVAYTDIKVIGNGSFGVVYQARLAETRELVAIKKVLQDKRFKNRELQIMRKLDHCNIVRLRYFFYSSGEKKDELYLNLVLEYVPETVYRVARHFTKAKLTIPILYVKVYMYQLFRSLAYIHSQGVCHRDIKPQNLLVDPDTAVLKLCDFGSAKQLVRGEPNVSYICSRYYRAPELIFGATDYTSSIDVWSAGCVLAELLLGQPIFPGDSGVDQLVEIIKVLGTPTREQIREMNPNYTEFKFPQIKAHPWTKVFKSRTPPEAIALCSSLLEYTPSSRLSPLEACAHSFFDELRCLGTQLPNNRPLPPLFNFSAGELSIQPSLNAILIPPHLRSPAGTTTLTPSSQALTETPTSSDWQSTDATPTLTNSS

[26] = biological target: Fibroblast growth factor receptor 1 (Homo sapiens) (UniProt P11362); test: Inhibition of wild-type human partial length FGFR1 (P357 to V669 residues) expressed in bacterial expression system assessed as residual activity at 1 uM by Kinomescan method relative to control

Serine/threonine-protein kinase 38 (Homo sapiens), sequence (Q15208 2-465 limits assumed): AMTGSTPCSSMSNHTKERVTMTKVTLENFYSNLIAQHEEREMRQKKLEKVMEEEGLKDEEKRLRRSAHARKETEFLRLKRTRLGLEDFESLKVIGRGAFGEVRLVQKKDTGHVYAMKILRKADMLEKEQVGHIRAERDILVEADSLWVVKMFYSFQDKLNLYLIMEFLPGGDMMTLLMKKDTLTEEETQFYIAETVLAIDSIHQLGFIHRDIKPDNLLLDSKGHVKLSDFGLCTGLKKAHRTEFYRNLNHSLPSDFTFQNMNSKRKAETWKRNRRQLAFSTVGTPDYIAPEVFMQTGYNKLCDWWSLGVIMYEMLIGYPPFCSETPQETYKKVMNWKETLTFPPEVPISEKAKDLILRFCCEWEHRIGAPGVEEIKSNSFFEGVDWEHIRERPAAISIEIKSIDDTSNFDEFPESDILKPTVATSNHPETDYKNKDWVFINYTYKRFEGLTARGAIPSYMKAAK

C=CC(=O)Nc1cc(Nc2cc(-c3cccc(NC(=O)c4ccc(C(C)(C)C)cc4)c3C)cn(C)c2=O)ccc1C(=O)N1CCOCC1
Activity [1]: 93% | Activity [2]: 97% | Activity [3]: 100% | Activity [4]: 100% | Activity [5]: 89% | Activity [6]: 100% | Activity [7]: 100% | Activity [8]: 99% | Activity [9]: 95% | Activity [10]: 100% | Activity [11]: 100% | GI50 [12]: 7.3 µM | Activity [13]: 100% | Activity [14]: 97% | Activity [15]: 56% | Activity [16]: 92% | Activity [17]: 100% | Activity [18]: 89% | Activity [19]: 91% | Activity [20]: 100% | Activity [21]: 88% | AUC(0-inf) [22]: 34.5 ng·h/mL | Activity [23]: 94% | Activity [24]: 100% | Activity [25]: 100% | Activity [26]: 94%
